Earlier results, collected in patent publication US20230355508A1, “TREATING NEUROPATHIC PAIN IN SPINAL CORD INJURED INDIVIDUALS” (CNS Biosciences, Inc., priority 2016, published 2023).
Read-outs that look alike come from different tables or passages of the source.

Test system: neuropathic pain following spinal cord injury
Conditions: Finnerup et al., Scandinavian Journal of Pain 2009; for relief of neuropathic pain following spinal cord injury: patients with neuropathic pain following SCI

## CC[C@@H](C(N)=O)N1CCCC1=O (single isomer, unassigned) [levetiracetam]
Patients with SCI
  relief of spasm severity following spinal cord injury: does not relieve
  relief of neuropathic pain following spinal cord injury: does not relieve
Listed as Levetiracetam
  relief of neuropathic pain following spinal cord injury: no analgesic or other benefit
